Laboratory results: patent publication US6974839B2, “Method of delaying ejaculation” (DMI BioSciences, Inc., priority 2001, dated 2005)
Counter-ions that a name gives are not always drawn.

Columns and labels:
[1] = system: normal subject; experiment: Delay of ejaculation after an oral dose taken 30–60 minutes prior to sexual intercourse; type: in vivo, human
Text: […]. […] […]

[2] = system: animal models; details: cited from earlier work
[3] = system: μ-opioid receptors; details: cited from earlier work

Row | SMILES | delay of ejaculation ([1]; 25 mg orally, 30–60 minutes prior to sexual intercourse, normal subject) [min] | ejaculation/orgasm achieved ([1]; 100 mg) | side effects associated with the dose ([1]; doses of 50–100 mg) | potency in producing analgesia relative to tramadol [2] | affinity of binding to μ-opioid receptors [3] | potency in μ-opioid binding relative to tramadol [3] [times]
1 | COc1cccc([C@]2(O)CCCC[C@H]2CN(C)C)c1 (racemic) [tramadol hydrochloride, (±)cis-2-[(dimethylamino)methyl]-1-(3-methoxyphenyl)-cyclohexanol hydrochloride] | 10 to 15 | sometimes ejaculation/orgasm was not achieved | drowsiness, lightheadedness, dry mouth and a sense of slight euphoria (opioid effect) |  |  | 
2 | CN(C)C[C@H]1CCCC[C@]1(O)c1cccc(O)c1 [M1] |  |  |  | up to 6 times | higher affinity binding | 200
3 | COc1cccc(C2(O)CCCCC2CN(C)C)c1 (stereo not shown) [tramadol, 2-[(dimethylamino)methyl]-1-(3-methoxyphenyl)-cyclohexanol] |  |  |  |  | low affinity binding | 
